Measurements reported in patent US5760087A, “Glycylanilide derivatives, their preparation and their application in therapy” (Pierre Fabre Medicament, priority 1995, dated 1998).

Columns and labels:
plasma cholesterol = assay: Hypocholesterolemic activity in rats on hypercholesterolemic diet; type: in vivo; settings: Rattus norvegicus; male rats, oral, 4 days, Altromin C 1061 hypercholesterolemic diet; plasma cholesterol on day 5 after 16 h fast; read-out: ED50 (dose which reduces the plasma cholesterol concentration by half relative to control animals)
Method: 2) Hypocholesterolemic Activity
Male rats (160-180 g) are subjected for 4 days to an Altromin C 1061 hypercholesterolemic diet, and concomitantly treated orally with the compounds suspended in carboxymethylcellulose at a concentration of 1%.
On day 5, the animals, fasted for 16 hours, are anesthetized with ethyl ether and exsanguinated by drawing blood at the abdominal aorta onto EDTA.
The blood is immediately centrifuged and the plasma stored at 4° C.
Plasma cholesterol is then assayed by the CHOP-PAP method (Boehringer-Mannheim Ref. 237574).
The median effective dose (ED50) corresponds to the dose which reduces the plasma cholesterol concentration by half relative to control animals.

[1] = test system: hepatic microsomal lipids (rat liver microsomes); assay: Antioxidant activity: chemical peroxidation of rat liver microsomes (T.BARS); type: biochemical; settings: Fe3+/ADP/dihydroxyfumaric acid
Source text: In the presence of Fe^3+ and ADP, dihydroxyfumaric acid undergoes an autoxidation which generates oxygen free radicals. The latter bring about the peroxidation of hepatic microsomal lipids.

Human LDL = assay: Antioxidant activity: oxidation of LDL by CuSO4 (T.BARS); type: biochemical; settings: 4.5 μM CuSO4, 6 hours incubation, T.BARS at 532 nm
[2] = target: ACAT (acyl-CoA:cholesterol O-acyltransferase enzyme); assay: Inhibition of ACAT in vitro (technique of H. Chautan et al.); type: biochemical; settings: read-out: IC50 (50% inhibitory concentration), ACAT inhibition
Source text: The compounds were studied for their inhibitory effect on ACAT and hypocholesterolemic effect in rats on the one hand and for their antioxidant effect on the other hand.

Row | Structure (SMILES) | ED50 (plasma cholesterol) | IC50 [1] | IC50 (Human LDL) | IC50 [2]
1 | CCCCCCCCCCC(C)(C)C(=O)Nc1c(OC)cc(OC)cc1OC [CI 976, reference compound] | 7.2 mg/kg | > 10000 nM | 100000 nM | 
2 | CCCCCCCCCCCCSC(C)C(=O)NCC(=O)Nc1cc(C)c(O)c(C)c1C (centres unmarked) [Compound 1, N-(2-n-dodecylthio)propionamido-2',3',5'-trimethyl-4'-hydroxyglycylanilide] | 1 mg/kg | 3000 nM | 5000 nM | 1200 nM
3 | CCCCCCCCCCCCC(C)(C)C(=O)NCC(=O)Nc1cc(C)c(O)c(C)c1C [Compound 2, N-(α,α,-dimethyl)tetradecanamido-2',3',5'-trimethyl-4'-hydroxyglycylanilide] | 3 mg/kg | 500 nM | 1000 nM | 740 nM
4 | CCCCCCCCCCCCSC(C)(C)C(=O)N(C)CC(=O)Nc1cc(C)c(O)c(C)c1C [Compound 3, N-methyl-N-(α-n-dodecylthio)isobutyramido-2',3',5'-trimethyl-4'-hydroxyglycylanilide] | < 2.5 mg/kg | 500 nM | 5000 nM | 160 nM
5 | CCCCCCCCCCCCSC(C)(C)C(=O)NCC(=O)Nc1cc(C)c(O)c(C)c1C [Compound 5, N-(α-n-dodecylthio)isobutyramido-2',3',5'-trimethyl-4'-hydroxyglycylanilide] | 2.5 mg/kg | 300 nM | 3000 nM | 620 nM
6 | CCCCCCCCCCCCSC(C)C(=O)N(C)CC(=O)Nc1cc(C)c(O)c(C)c1C (stereo not drawn) [Compound 8, N-methyl-N-(α-n-dodecylthio)propionamido-2',3',5'-trimethyl-4'-hydroxyglycylanilide] | 4 mg/kg | 500 nM | 3000 nM | 280 nM
7 | CCCCCCCN(CCCCCSc1nc(-c2ccccc2)c(-c2ccccc2)[nH]1)C(=O)Nc1ccc(F)cc1F [DUP 128, reference compound] | 1.4 mg/kg | > 10000 nM | 30000 nM | 
